Read-outs that look alike come from different tables or passages of the source.
Assays:
[1] = system: central nervous system effects of THC; test: Phase 2 randomized, double-blind, placebo-controlled THC challenge study, PD endpoints (10.5 mg THC + 50 or 100 mg Compound 1); assay type: in vivo, human; details: 10.5 mg THC alone (THC/placebo); score of at least 20/100 on VAS feeling high scale
[2] = Plasma PK of ANEB-001 and THC, 30 mg or 10 mg oral Compound 1 with 21 mg THC (Example 4); assay type: in vivo, human; details: for concentration at 0 h / concentration at 20 min / concentration at 40 min / concentration at 1 h / concentration at 2 h / concentration at 3 h / concentration at 4 h / concentration at 5 h / concentration at 24 h / AUC(0-t) / Cmax / Tmax: human, in vivo; for concentration at 0 h: 00H00M; for concentration at 20 min: 00H20M; for concentration at 40 min: 00H40M; for concentration at 1 h: 01H00M; for concentration at 2 h: 02H00M; for concentration at 3 h: 03H00M; for concentration at 4 h: 04H00M; for concentration at 5 h: 05H00M; for concentration at 24 h: 24H00M; for Tmax: read-out: THC plasma tmax, Median
Procedure: Following the general methods of Example 2, the study design was adjusted such that groups received either (a) THC (21 mg)+placebo or (b) THC (21 mg)+Compound 1 (30 mg) (FIG. 14) or either (a) THC (21 mg)+placebo or (b) THC (21 mg)+Compound 1 (10 mg) (FIG. 15). […] Summary of pharmacokinetics of THC with 30 mg ANEB-001 challenge (FIG. 18A and FIG. 18B), AUC after 5 hours (FIG. 18C), AUC last (FIG. 18D) and Cmax (FIG. 18E).
Summary of pharmacokinetics for 30 mg ANEB-001 and 10 mg ANEB-001 challenge with 21 mg THC administration in plasma (FIGS. 19A and 19B); AUC after 5 hours for 10 mg ANEB-001 and 30 mg ANEB-001 (FIG. 19C), AUC last (FIG. 19D), and Cmax (FIG. 19E).
All PK parameter calculations were based on actual sampling time. For calculation of PK parameters, all BLQ concentrations that were between the first and last non-BLQ values were dropped (treated as ‘missing’). For calculation of AUClast and t1/2, additionally all values that were BLQ after the last non-BLQ value were dropped (treated as missing). If data points for concentrations were missing, the AUC parameters were derived by interpolating with regard to the 2 neighboring non-missing concentrations. AUC was calculated using the log-linear trapezoidal rule.
Reporting of drug concentration data. The concentrations are summarized (mean, SD, % CV, median, Min and Max values) by treatment and time, and are also presented graphically as mean over time, with standard deviation as error bars. For graphical and summary purposes of drug concentrations, values below the limit of quantification (BLQ) are set to zero. The SD and CVT are not reported if the mean is 0.
Reporting of PK parameters. The individual PK parameters (except tmax and tlag) are summarized (mean, SD, CV, geometric mean, geometric CV, median, M in and Max) per treatment group and a selection of the PK parameters are presented graphically as boxplots. For tmax and tlag, the median, Min and Max statistics are reported. Boxplots present the median (horizontal solid line), the 25%-75% distribution (IQR), with 1.5× the IQR as whiskers.

[3] = 21 mg THC + 30 mg ANEB-001, read-out: THC in Plasma (concentration), Mean
[4] = 21 mg THC + 30 mg ANEB-001, read-out: THC in Plasma (concentration), Median
[5] = 21 mg, 21 mg THC + Placebo, read-out: THC in Plasma (concentration), Mean
[6] = 21 mg, 21 mg THC + Placebo, read-out: THC in Plasma (concentration), Median

## CCCCCc1cc(O)c2c(c1)OC(C)(C)[C@@H]1CCC(C)=C[C@@H]21 [THC, Δ9-tetrahydrocannabinol]
[1]
  Proportion of subjects reporting feeling high: 75%
[2]; 21 mg THC + 30 mg ANEB-001
  THC Dose normalized Cmax, GeoMean: 0.4482 ng/mL/mg
  THC Dose normalized Cmax, Mean: 0.4658 ng/mL/mg
  THC Dose normalized Cmax, Median: 0.442 ng/mL/mg
  THC plasma tlag, Median: 0 h
  Tmax: 40.2 min
[2]; 21 mg THC + Placebo
  THC Dose normalized Cmax, GeoMean: 0.2634 ng/mL/mg
  THC Dose normalized Cmax, Mean: 0.2965 ng/mL/mg
  THC Dose normalized Cmax, Median: 0.260 ng/mL/mg
  THC plasma AUC5H, Mean: 14.6 ng·h/mL
  THC plasma tlag, Median: 0 h
  Tmax: 40.2 min
[2]; [3]
  concentration at 0 h: 0.0163 ng/mL
  concentration at 20 min: 4.16 ng/mL
  concentration at 40 min: 8.94 ng/mL
  concentration at 1 h: 7.45 ng/mL
  concentration at 2 h: 4.07 ng/mL
  concentration at 3 h: 2.46 ng/mL
  concentration at 4 h: 1.22 ng/mL
  concentration at 5 h: 0.744 ng/mL
  concentration at 24 h: 0.0551 ng/mL
[2]; [4]
  concentration at 0 h: 0 ng/mL
  concentration at 20 min: 3.48 ng/mL
  concentration at 40 min: 8.4 ng/mL
  concentration at 1 h: 7.31 ng/mL
  concentration at 2 h: 4.01 ng/mL
  concentration at 3 h: 2.03 ng/mL
  concentration at 4 h: 1.28 ng/mL
  concentration at 5 h: 0.684 ng/mL
  concentration at 24 h: 0 ng/mL
[2]; 21 mg THC + 30 mg ANEB-001, read-out: THC plasma AUC5H, GeoMean
  AUC(0-t): 16.3 ng·h/mL
[2]; 21 mg THC + 30 mg ANEB-001, read-out: THC plasma AUC5H, Mean
  AUC(0-t): 17 ng·h/mL
[2]; 21 mg THC + 30 mg ANEB-001, read-out: THC plasma AUC5H, Median
  AUC(0-t): 16.1 ng·h/mL
[2]; 21 mg THC + 30 mg ANEB-001, read-out: THC plasma AUClast, GeoMean
  AUC(0-t): 17.9 ng·h/mL
[2]; 21 mg THC + 30 mg ANEB-001, read-out: THC plasma AUClast, Mean
  AUC(0-t): 19.3 ng·h/mL
[2]; 21 mg THC + 30 mg ANEB-001, read-out: THC plasma AUClast, Median
  AUC(0-t): 18.4 ng·h/mL
[2]; 21 mg THC + 30 mg ANEB-001, read-out: THC plasma Cmax, GeoMean
  Cmax: 9.41 ng/mL
[2]; 21 mg THC + 30 mg ANEB-001, read-out: THC plasma Cmax, Mean
  Cmax: 9.78 ng/mL
[2]; 21 mg THC + 30 mg ANEB-001, read-out: THC plasma Cmax, Median
  Cmax: 9.28 ng/mL
[2]; [5]
  concentration at 0 h: 0 ng/mL
  concentration at 20 min: 2.22 ng/mL
  concentration at 40 min: 6.1 ng/mL
  concentration at 1 h: 5.78 ng/mL
  concentration at 2 h: 2.85 ng/mL
  concentration at 3 h: 3.23 ng/mL
  concentration at 4 h: 1.66 ng/mL
  concentration at 5 h: 1.06 ng/mL
  concentration at 24 h: 0.0206 ng/mL
[2]; [6]
  concentration at 0 h: 0 ng/mL
  concentration at 20 min: 2.01 ng/mL
  concentration at 40 min: 5.46 ng/mL
  concentration at 1 h: 5.47 ng/mL
  concentration at 2 h: 1.86 ng/mL
  concentration at 3 h: 1.47 ng/mL
  concentration at 4 h: 0.894 ng/mL
  concentration at 5 h: 0.456 ng/mL
  concentration at 24 h: 0 ng/mL
[2]; 21 mg, 21 mg THC + Placebo, read-out: THC plasma AUC5H, GeoMean
  AUC(0-t): 12 ng·h/mL
[2]; 21 mg, 21 mg THC + Placebo, read-out: THC plasma AUC5H, Median
  AUC(0-t): 9.32 ng·h/mL
[2]; 21 mg, 21 mg THC + Placebo, read-out: THC plasma AUClast, GeoMean
  AUC(0-t): 13 ng·h/mL
[2]; 21 mg, 21 mg THC + Placebo, read-out: THC plasma AUClast, Mean
  AUC(0-t): 18.3 ng·h/mL
[2]; 21 mg, 21 mg THC + Placebo, read-out: THC plasma AUClast, Median
  AUC(0-t): 9.32 ng·h/mL
[2]; 21 mg, 21 mg THC + Placebo, read-out: THC plasma Cmax, GeoMean
  Cmax: 5.53 ng/mL
[2]; 21 mg, 21 mg THC + Placebo, read-out: THC plasma Cmax, Mean
  Cmax: 6.23 ng/mL
[2]; 21 mg, 21 mg THC + Placebo, read-out: THC plasma Cmax, Median
  Cmax: 5.47 ng/mL

— patent publication US20260091020A1, “TREATMENT OF ACUTE CANNABINOID OVERDOSE” (Anebulo Pharmaceuticals, Inc., priority 2022, published 2026)
